The record followed here is US12486251B2 (PHARMABLOCK SCIENCES (NANJING) , INC., priority 2020, dated 2025).

The target in this assay is CBP recombinant proteins (Homo sapiens (Human), UniProt Q92793). Kind of assay: Competitive HTRF assay for affinity to CBP recombinant protein. The assay is classed as binding. Conditions: His-tagged CBP 5 nM, biotin-labeled ligand 50 nM, 1% DMSO. As for the experimental part:
The affinity of the compounds synthesized in the present patert to the CBP recombinant proteins was determined by competitive HTRF method. His-tagged cyclic adenosine monophosphate response element binding protein (CREB-binding protein, CBP) was expressed in Escherichia coli system and further purified. CBP biotinylated ligands were all self-made. The BL21 star (DE3) competert cells transfected with His-tagged CBP protein genes at N-terminal were cultured at 37° C. for 16 h until the OD value was between 0.6 and 0.8, induced by 0.5 mM of IPTG and cultured overnight. The supernatant of cell lysate was purified by a Ni-ion affinity column and a Superdex75 molecular sieve column sequentially. The purity of resulting CBP proteins was 95%. The fluorescent donor reagent MAb Anti 6HIS—Eu cryptate Gold (Cisbio #61HI2KLA), the receptor reagent Streptavidin-XL665 (#610SAXLA) and the detection buffer (#62SDBRDD) required for HTRF were obtained from CISBIO BIOASSAYS (Codolet, France). Tris(2-carboxyethyl)phosphine hydrochloride (TCEP), sodium chloride, adenosine triphosphate (ATP), Tween-20, dimethylsulfoxide (DMSO), bovine serum albumin (BSA) and HEPES buffer were obtained from SIGMA at the highest level commercially available.
The general procedure of the competitive HTRF assay for the affinity to CBP recombinant proteins is as follows: 0.05% Tween-20 and 1 mM of TCEP were added immediately before the assay, and the assay was performed in a buffer consisting of 0.1 mg/ml BSA, 50 mM of HEPES and 5 mM of NaCl of pH 7.5. 2.5 μL of compound solution in a determination buffer with 4% DMSO and 5 μL of CBP solution in a determination buffer were added to a white low-volume 384-well microtiter plate, incubated at room temperature for 20 min, and then incubated at room temperature for 40 min by adding 2.5 μL of biotin-labeled ligand solution to the determination buffer. The final concentrations of CBP, biotin-labeled ligand and DMSO were 5 nM, 50 nM and 1%, respectively. Then, 5 μL of MAb Anti 6HIS—Eu cryptate Gold and […] of Streptavidin-XL665 in detection buffers from the manufacturer were added to the mixture, and the mixture was incubated for another 60 min. The final concentration of Streptavidin-XL665 was 12.5 nM, and MAb Anti 6HIS—Eu cryptate Gold was diluted according to the final concentration provided by the supplier. The multimode reader Spark from TECAN (Mannedorf, Switzerland) was used to read the plate to detect the homogeneous time-resolved fluorescence intensity of two groups, in which the excitation wavelength was 320 nm and the emission wavelengths were 665 nm and 620 nm. The IC50 value of the inhibitor was obtained by fitting fluorescence intensity ratios at 665 nm/620 nm with respect to the inhibitor concentration in an S-shaped dose-response curve by using Prism 7 (La Jolla, 15 CA).
In general terms: TR-FRET usually uses a lanthanide donor and a delayed reading to cut background.

Sequence of CBP recombinant proteins (Q92793 whole entry): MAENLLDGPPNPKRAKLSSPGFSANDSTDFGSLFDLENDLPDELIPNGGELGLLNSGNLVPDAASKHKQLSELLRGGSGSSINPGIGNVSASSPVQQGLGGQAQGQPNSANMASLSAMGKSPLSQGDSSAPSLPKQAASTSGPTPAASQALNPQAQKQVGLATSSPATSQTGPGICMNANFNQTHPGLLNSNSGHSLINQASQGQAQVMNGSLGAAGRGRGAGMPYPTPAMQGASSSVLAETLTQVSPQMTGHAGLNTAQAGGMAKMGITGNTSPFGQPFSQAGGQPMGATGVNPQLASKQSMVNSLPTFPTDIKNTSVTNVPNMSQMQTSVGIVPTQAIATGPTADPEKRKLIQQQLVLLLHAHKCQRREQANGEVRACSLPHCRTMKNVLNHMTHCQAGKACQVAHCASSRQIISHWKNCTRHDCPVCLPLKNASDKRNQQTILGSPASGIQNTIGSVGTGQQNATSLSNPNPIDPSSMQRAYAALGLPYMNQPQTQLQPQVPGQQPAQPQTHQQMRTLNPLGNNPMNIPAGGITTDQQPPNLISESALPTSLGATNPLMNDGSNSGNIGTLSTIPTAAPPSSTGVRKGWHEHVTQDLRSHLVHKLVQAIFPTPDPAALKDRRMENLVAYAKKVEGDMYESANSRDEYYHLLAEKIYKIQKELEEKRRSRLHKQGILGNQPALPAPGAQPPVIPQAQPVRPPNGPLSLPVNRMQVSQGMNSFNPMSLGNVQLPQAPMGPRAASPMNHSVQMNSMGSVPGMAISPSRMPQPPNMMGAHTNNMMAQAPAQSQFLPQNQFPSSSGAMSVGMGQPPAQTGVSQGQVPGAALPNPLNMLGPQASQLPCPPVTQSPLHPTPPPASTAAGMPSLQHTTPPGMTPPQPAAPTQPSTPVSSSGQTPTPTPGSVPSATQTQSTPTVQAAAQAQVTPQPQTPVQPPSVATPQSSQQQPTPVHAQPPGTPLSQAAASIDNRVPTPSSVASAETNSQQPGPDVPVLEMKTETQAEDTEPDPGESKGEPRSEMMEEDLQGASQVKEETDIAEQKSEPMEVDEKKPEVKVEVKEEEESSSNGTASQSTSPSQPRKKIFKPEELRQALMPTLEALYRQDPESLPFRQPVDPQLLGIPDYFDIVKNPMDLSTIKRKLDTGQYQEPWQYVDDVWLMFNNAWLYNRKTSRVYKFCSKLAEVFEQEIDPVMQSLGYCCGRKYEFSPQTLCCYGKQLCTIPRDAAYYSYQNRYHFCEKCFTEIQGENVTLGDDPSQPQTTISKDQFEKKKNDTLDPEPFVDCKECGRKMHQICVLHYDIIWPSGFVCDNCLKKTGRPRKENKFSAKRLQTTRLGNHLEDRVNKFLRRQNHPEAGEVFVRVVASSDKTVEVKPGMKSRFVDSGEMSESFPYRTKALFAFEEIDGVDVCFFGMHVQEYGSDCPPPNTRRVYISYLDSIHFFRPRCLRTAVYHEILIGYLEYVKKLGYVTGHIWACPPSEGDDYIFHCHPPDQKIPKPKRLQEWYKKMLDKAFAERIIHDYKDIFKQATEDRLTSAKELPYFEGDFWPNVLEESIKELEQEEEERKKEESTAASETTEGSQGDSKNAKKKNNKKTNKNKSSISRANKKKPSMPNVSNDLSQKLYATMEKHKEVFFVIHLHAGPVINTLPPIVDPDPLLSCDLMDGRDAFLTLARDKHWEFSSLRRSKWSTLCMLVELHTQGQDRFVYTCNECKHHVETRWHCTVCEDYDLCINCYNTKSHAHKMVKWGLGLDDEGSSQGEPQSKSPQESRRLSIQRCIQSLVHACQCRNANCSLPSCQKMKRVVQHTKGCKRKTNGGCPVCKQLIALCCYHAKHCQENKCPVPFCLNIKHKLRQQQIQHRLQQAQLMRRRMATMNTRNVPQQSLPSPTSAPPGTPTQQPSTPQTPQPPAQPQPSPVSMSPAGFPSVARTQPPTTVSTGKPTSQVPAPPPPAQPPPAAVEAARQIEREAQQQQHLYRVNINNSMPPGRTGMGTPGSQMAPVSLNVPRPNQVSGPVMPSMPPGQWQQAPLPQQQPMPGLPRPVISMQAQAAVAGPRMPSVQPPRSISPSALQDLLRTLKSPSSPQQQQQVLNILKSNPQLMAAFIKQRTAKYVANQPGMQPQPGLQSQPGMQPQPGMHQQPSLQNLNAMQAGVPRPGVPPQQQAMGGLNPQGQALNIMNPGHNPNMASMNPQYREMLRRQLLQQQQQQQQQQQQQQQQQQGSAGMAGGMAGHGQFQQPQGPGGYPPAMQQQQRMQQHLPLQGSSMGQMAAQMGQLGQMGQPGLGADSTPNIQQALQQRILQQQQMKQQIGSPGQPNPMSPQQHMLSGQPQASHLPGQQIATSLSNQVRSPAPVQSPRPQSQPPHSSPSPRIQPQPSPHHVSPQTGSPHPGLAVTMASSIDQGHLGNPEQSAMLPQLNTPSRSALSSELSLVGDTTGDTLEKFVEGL

With `CNC(=O)c1cc2ccccc2c(N2CCCc3cc(-c4cnn(C)c4)ccc32)n1` [Example 1, 1-[6-(1-methyl-1H-pyrazol-4-yl)-3,4-dihydro-2H-quinolin-1-yl]-isoquinoline-3-carboxylic acid methylamide], the IC50 – broadly, the midpoint of a concentration-inhibition curve – was determined as 72 nM.
In the case of `CNC(=O)c1cc2ccccc2c(N2CCCc3cc(-c4cnn(C)c4)c(C(F)F)cc32)n1` [Example 2, 1-[7-difluoromethyl-6-(1-methyl-1H-pyrazol-4-yl)-3,4-dihydro-2H-quinolin-1-yl]isoquinoline-3-carboxylic acid methylamide], the IC50 amounted to 19 nM.
The same measure for `Cn1cc(-c2cc3c(cc2C(F)F)N(c2nc(C(N)=O)cc4ccccc24)CCC3)cn1` [Example 3, 1-[7-difluoro-methyl-6-(1-methyl-1H-pyrazol-4-yl)-3,4-dihydro-2H-quinolin-1-yl]-isoquinoline-3-carboxylic acid amide]: 245 nM.
For `CN(C)C(=O)c1cc2ccccc2c(N2CCCc3cc(-c4cnn(C)c4)c(C(F)F)cc32)n1` [Example 4, 1-[7-difluoro-methyl-6-(1-methyl-1H-pyrazol-4-yl)-3,4-dihydro-2H-quinolin-1-yl]-isoquinoline-3-carboxylic acid dimethylamide], the IC50 is above 1000 nM.
With `CCNC(=O)c1cc2ccccc2c(N2CCCc3cc(-c4cnn(C)c4)c(C(F)F)cc32)n1` [Example 5, 1-[7-difluoro-methyl-6-(1-methyl-1H-pyrazol-4-yl)-3,4-dihydro-2H-quinolin-1-yl]-isoquinoline-3-carboxylic acid ethylamide] the figure was above 1000 nM.
The same measure for `Cn1cc(-c2cc3c(cc2C(F)F)N(c2nc(C(=O)NCCO)cc4ccccc24)CCC3)cn1` [Example 6, 1-[7-difluoro-methyl-6-(1-methyl-1H-pyrazol-4-yl)-3,4-dihydro-2H-quinolin-1-yl]-isoquinoline-3-carboxylic acid(2-hydroxy-ethyl)-amide]: above 1000 nM; for `CC(O)CNC(=O)c1cc2ccccc2c(N2CCCc3cc(-c4cnn(C)c4)c(C(F)F)cc32)n1` (stereo not drawn) [Example 7, 1-[7-difluoro-methyl-6-(1-methyl-1H-pyrazol-4-yl)-3,4-dihydro-2H-quinolin-1-yl]-isoquinoline-3-carboxylic acid(2-hydroxy-propyl)-amide]: above 1000 nM; for `Cn1cc(-c2cc3c(cc2C(F)F)N(c2nc(C(=O)N4CC(O)C4)cc4ccccc24)CCC3)cn1` [Example 8, {1-[7-difluoro-methyl-6-(1-methyl-1H-pyrazol-4-yl)-3,4-dihydro-2H-quinolin-1-yl]-isoquinolin-3-yl}-(3-hydroxy-azetidine-1-yl)methanone]: above 1000 nM.
The same measure for `Cn1cc(-c2cc3c(cc2C(F)F)N(c2nc(C(=O)NC4CC4)cc4ccccc24)CCC3)cn1` [Example 9, 1-[7-difluoro-methyl-6-(1-methyl-1H-pyrazol-4-yl)-3,4-dihydro-2H-quinolin-1-yl]-isoquinoline-3-carboxylic acid cyclopro-pylamide]: above 1000 nM.
In the case of `CNC(=O)c1cccc(N2CCCc3cc(-c4cnn(C)c4)c(C(F)F)cc32)n1` [Example 11], the IC50 is above 1000 nM.
With `CNC(=O)c1nc(N2CCCc3cc(-c4cnn(C)c4)c(C(F)F)cc32)c2ccccc2n1` [Example 12, 4-[7-difluoro-methyl-6-(1-methyl-1H-pyrazol-4-yl)-3,4-dihydro-2H-quinolin-1-yl]-quinazolin-2-carboxylic acid methylamide] the figure was above 1000 nM; with `CNC(=O)c1cc2cnccc2c(N2CCCc3cc(-c4cnn(C)c4)c(C(F)F)cc32)n1` [Example 13, 2-[7-difluoro-methyl-6-(1-methyl-1H-pyrazol-4-yl)-3,4-dihydro-2H-quinolin-1-yl]-[2,6] naphthyridine-3-carboxylic acid methylamide], 21 nM.
With `CNC(=O)c1cc2ccncc2c(N2CCCc3cc(-c4cnn(C)c4)c(C(F)F)cc32)n1` [Example 14, 1-[7-difluoro-methyl-6-(1-methyl-1H-pyrazol-4-yl)-3,4-dihydro-2H-quinolin-1-yl]-[2,7] naphthyridine-3-carboxylic acid methylamide] the figure was 15 nM; with `CNC(=O)c1cc2cccnc2c(N2CCCc3cc(-c4cnn(C)c4)c(C(F)F)cc32)n1` [Example 15, 8-[7-difluoro-methyl-6-(1-methyl-1H-pyrazol-4-yl)-3,4-dihydro-2H-quinolin-1-yl]-[1,7] naphthyridine-6-carboxylic acid methylamide], 7.5 nM; with `CNC(=O)c1cc2ccc(C3=CCOCC3)cc2c(N2CCCc3cc(-c4cnn(C)c4)c(C(F)F)cc32)n1` [Example 16, 1-[7-difluoromethyl-6-(1-methyl-1H-pyrazol-4-yl)-3,4-dihydro-2H-quinolin-1-yl]-7-(3,6-dihydro-2H-pyran-4-yl)-isoquinoline-3-carboxylic acid methylamide], 13 nM.
With `CNC(=O)c1cc2ccc(C3CCOCC3)cc2c(N2CCCc3cc(-c4cnn(C)c4)c(C(F)F)cc32)n1` [Example 17, 1-[7-difluoromethyl-6-(1-methyl-1H-pyrazol-4-yl)-3,4-dihydro-2H-quinolin-1-yl]-7-(tetrahydro-4-yl)-isoquinoline-3-carboxylic acid methylamide] the figure was 12 nM.
Regarding `CNC(=O)c1cc2ccc(C3=CCOC3)cc2c(N2CCCc3cc(-c4cnn(C)c4)c(C(F)F)cc32)n1` [Example 18, 1-[7-difluoromethyl-6-(1-methyl-1H-pyrazol-4-yl)-3,4-dihydro-2H-quinolin-1-yl]-7-(2,5-dihydro-furan-3-yl)-isoquinoline-3-carboxylic acid methylamide], the IC50 amounted to 19 nM.
Turning to `CNC(=O)c1cc2ccc(C3CCOC3)cc2c(N2CCCc3cc(-c4cnn(C)c4)c(C(F)F)cc32)n1` (stereo not drawn) [Example 19, 1-[7-difluoromethyl-6-(1-methyl-1H-pyrazol-4-yl)-3,4-dihydro-2H-quinolin-1-yl]-7-(tetrahydrofuran-3-yl)-isoquinoline-3-carboxylic acid methylamide], the IC50 turned out to be 6.9 nM.
With `CNC(=O)c1cc2cc(C3=CCOCC3)ccc2c(N2CCCc3cc(-c4cnn(C)c4)c(C(F)F)cc32)n1` [Example 20, 1-[7-difluoromethyl-6-(1-methyl-1H-pyrazol-4-yl)-3,4-dihydro-2H-quinolin-1-yl]-6-(3,6-dihydro-2H-pyran-4-yl)-isoquino-line-3-carboxylic acid methylamide] the figure was 18 nM; with `CNC(=O)c1cc2cc(C3CCOCC3)ccc2c(N2CCCc3cc(-c4cnn(C)c4)c(C(F)F)cc32)n1` [Example 21, 1-[7-difluoromethyl-6-(1-methyl-1H-pyrazol-4-yl)-3,4-dihydro-2H-quinolin-1-yl]-6-(tetrahydro-pyran-4-yl)-isoquinoline-3-carboxylic acid methylamide], 38 nM.
With `CNC(=O)c1cc2cc(C3=CCOC3)ccc2c(N2CCCc3cc(-c4cnn(C)c4)c(C(F)F)cc32)n1` [Example 22, 1-[7-difluoromethyl-6-(1-methyl-1H-pyrazol-4-yl)-3,4-dihydro-2H-quinolin-1-yl]-6-(2,5-dihydro-furan-3-yl)-isoquinoline-3-carboxylic acid methylamide] the figure was 22 nM; with `CNC(=O)c1cc2cc(C3CCOC3)ccc2c(N2CCCc3cc(-c4cnn(C)c4)c(C(F)F)cc32)n1` (stereo not drawn) [Example 23, 1-[7-difluoromethyl-6-(1-methyl-1H-pyrazol-4-yl)-3,4-dihydro-2H-quinolin-1-yl]-6-(tetrahydrofuran-3-yl)-isoquinoline-3-carboxylic acid methylamide], 18 nM.
The same measure for `CNC(=O)c1cc2ccc(N3CCOC3=O)cc2c(N2CCCc3cc(-c4cnn(C)c4)c(C(F)F)cc32)n1` [Example 24, 1-[7-difluoromethyl-6-(1-methyl-1H-pyrazol-4-yl)-3,4-dihydro-2H-quinolin-1-yl]-7-(2-oxo-oxazolidin-3-yl)-isoquinoline-3-carboxylic acid methylamide]: 7.8 nM; for `CNC(=O)c1cc2cc(N3CCOC3=O)ccc2c(N2CCCc3cc(-c4cnn(C)c4)c(C(F)F)cc32)n1` [Example 25, 1-[7-difluoromethyl-6-(1-methyl-1H-pyrazol-4-yl)-3,4-dihydro-2H-quinolin-1-yl]-6-(2-oxo-oxazolidin-3-yl)-isoquinoline-3-carboxylic acid methylamide]: 4.2 nM.
